From patent US20230277483A1, “COMPOSITIONS AND METHODS TO TREAT INFLAMMATION” (University of Iowa Research Foundation, priority 2022, published 2023)

Key:
[1] = system: epidydimal white adipose tissues (eWAT); test: eWAT explants from mice on a HFD for 16 weeks; type: cell-based, mouse; details: HCA at 0.5 and 1.0 μM; 16 hours post treatment
Procedure: In addition, freshly isolated epidydimal white adipose tissues (eWAT) from mice on a HFD for 16 weeks were minced and cultured in 24-well plates and treated with HCA at 0.5 and 1.0 μM in DMEM/F-12 containing 10% cosmic calf serum (CCS) and 1% penicillin-streptomycin (basal growth media, BGM). […] These preliminary data are strong evidence that Sg metabolites have the potential to modulate host inflammatory responses and attenuate inflammation.

S. mitis (Sm, ATCC49456) = test: Bacterial proliferation (growth profile); type: cell-based, Streptococcus mitis; details: HCA at 0.1 μM; aerobic culture
Procedure: Sg metabolites promote commensal bacterial proliferation and inhibit periodontopathogenic bacterial proliferation and colonization. Commensal bacteria, Sg, S. sanguinis (Ss, ATCC10556), S. mitis (Sm, ATCC49456) and S. oralis (So, ATCC 35037) were cultured in BHI medium. In addition, pathogenic bacteria, Pg was cultured using BHI and Tf (ATCC43037), and Td (ATCC 35405) were grown in Thioglycollate medium with vitamin K and Hemin in 90% N2, 5% H2, 5% CO2. The Sg metabolites were diluted using DMEM and added to the bacteria with the similar OD600 value. The same amount of DMEM was used as a control. During the exponential growth of bacteria, the OD600 value was measured to determine the proliferation. […] In addition, to determine the function of Sg metabolites on Pg colonization, Pg were inoculated in 24-well plates containing BHI or BHI supplemented with DMEM or Sg metabolites. […]
HCA promotes proliferation of health related bacteria and inhibits proliferation and attachment of periodontopathogenic bacteria. […] The composition of the microbiomes was determined by amplifying the V3 and V4 regions of the 16S rRNA genes. Raw data in FASTQ format were filtered and denoised using DADA2 (Divisive Amplicon Denoising Algorithm) to generate amplicon sequence variants (ASV) or operational taxonomical units (OTUs) that were then analyzed by QIIME2.

## O=C(O)CCCCCO [HCA, 6-hydroxycaproic acid]
[1]
  protein level of IL-6 in cultured media: significantly reduced
  transcripts of IL-6, IL-1β, and Nos2: significantly reduced
S. mitis (Sm, ATCC49456)
  proliferation of S. mitis: improve proliferation
